From patent US12662465B2, “EGFR inhibitors” (Blueprint Medicines Corporation, priority 2021, dated 2026)

Assays:
EGFR L858R = target: T1, EGFR L858R (Homo sapiens, UniProt P00533, L858R); assay: Biochemical EGFR inhibition assay (Caliper mobility shift), EGFR L858R; conditions: read-out: Enz EGFR_L858R IC50
T1 construct: purchased SignalChem E10-122BG

EGFR (d746-750) = target: T2, EGFR (d746-750) (Homo sapiens, UniProt P00533, DEL746-750); assay: Biochemical EGFR inhibition assay (Caliper mobility shift), EGFR (d746-750); conditions: read-out: Enz EGFR_Exon19-del746-750 IC50
T2 construct: purchased SignalChem E10-122JG

[1] = target: intracellular phosphorylation of EGFR (Tyr1068) in PC-9 cells (Ex19Del) (Homo sapiens, UniProt P00533, DEL746-750); assay: PC-9 pEGFR AlphaLISA assay; type: cell-based; conditions: 4 hours compound incubation, read-out: Ext pEGFR_PC-9 Ex19Del IC50
Chain of intracellular phosphorylation of EGFR (Tyr1068) in PC-9 cells (Ex19Del) (P00533 with tags, fused parts or gaps DEL746-750): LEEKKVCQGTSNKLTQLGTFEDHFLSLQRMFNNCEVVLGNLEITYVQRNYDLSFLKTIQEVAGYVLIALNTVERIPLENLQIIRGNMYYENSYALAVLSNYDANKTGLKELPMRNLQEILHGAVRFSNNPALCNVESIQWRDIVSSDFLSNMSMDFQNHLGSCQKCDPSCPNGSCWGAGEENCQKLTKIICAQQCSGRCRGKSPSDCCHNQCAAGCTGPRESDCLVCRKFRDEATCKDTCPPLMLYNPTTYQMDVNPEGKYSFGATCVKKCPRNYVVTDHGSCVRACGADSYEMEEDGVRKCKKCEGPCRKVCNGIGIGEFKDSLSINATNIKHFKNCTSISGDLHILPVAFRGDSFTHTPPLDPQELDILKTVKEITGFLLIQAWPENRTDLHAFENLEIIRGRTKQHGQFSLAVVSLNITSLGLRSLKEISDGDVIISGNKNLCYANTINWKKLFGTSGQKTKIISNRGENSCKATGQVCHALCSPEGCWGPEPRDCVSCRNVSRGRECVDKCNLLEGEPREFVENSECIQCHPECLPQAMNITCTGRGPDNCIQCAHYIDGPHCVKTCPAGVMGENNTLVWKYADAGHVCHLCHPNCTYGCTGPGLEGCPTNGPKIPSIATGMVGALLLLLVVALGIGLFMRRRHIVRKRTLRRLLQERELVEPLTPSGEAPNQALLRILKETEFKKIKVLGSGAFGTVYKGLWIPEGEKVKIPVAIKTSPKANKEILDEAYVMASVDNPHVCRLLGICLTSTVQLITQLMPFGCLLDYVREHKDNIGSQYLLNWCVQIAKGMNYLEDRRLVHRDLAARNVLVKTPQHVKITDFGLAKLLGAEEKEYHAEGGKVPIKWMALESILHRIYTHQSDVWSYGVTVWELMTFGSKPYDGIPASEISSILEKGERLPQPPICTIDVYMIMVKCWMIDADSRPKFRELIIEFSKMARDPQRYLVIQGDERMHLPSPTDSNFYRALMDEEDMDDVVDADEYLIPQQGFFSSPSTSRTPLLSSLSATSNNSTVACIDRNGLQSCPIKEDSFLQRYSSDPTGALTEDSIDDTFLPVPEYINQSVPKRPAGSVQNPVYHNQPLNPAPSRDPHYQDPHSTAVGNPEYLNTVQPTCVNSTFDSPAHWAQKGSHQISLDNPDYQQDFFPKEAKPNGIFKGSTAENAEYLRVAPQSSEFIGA

T1 sequence (P00533 25-1210 L858R): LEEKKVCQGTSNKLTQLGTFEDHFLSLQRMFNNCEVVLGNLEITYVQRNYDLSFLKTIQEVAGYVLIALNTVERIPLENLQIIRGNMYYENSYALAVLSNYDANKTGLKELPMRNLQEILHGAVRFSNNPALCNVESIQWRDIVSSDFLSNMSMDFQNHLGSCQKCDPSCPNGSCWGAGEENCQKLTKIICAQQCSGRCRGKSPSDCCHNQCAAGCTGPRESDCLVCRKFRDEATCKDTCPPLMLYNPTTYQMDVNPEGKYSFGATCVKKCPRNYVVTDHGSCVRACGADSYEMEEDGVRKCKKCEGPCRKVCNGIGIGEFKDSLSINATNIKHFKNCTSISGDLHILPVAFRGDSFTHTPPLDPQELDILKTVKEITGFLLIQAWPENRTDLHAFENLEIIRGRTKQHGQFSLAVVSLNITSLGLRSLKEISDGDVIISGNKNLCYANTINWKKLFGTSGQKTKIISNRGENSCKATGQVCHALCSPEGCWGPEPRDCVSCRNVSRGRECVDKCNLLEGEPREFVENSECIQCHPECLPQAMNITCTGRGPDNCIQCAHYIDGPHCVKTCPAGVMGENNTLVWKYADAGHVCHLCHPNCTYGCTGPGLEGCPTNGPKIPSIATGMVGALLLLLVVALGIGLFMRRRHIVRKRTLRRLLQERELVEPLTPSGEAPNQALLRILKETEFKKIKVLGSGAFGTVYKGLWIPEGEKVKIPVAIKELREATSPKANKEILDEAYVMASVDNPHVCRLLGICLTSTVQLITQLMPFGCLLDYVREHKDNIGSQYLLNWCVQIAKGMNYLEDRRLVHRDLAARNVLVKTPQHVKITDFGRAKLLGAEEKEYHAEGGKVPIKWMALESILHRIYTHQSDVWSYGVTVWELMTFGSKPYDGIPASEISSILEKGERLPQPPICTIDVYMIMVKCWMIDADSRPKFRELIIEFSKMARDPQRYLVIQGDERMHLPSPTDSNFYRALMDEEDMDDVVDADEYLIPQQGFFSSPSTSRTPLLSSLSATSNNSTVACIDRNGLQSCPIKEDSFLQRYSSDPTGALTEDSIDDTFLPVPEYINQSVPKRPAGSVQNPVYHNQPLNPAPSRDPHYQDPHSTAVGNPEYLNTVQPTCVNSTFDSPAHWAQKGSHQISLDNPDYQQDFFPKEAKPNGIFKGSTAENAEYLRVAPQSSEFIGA
T2 sequence (P00533 with tags, fused parts or gaps DEL746-750 limits assumed): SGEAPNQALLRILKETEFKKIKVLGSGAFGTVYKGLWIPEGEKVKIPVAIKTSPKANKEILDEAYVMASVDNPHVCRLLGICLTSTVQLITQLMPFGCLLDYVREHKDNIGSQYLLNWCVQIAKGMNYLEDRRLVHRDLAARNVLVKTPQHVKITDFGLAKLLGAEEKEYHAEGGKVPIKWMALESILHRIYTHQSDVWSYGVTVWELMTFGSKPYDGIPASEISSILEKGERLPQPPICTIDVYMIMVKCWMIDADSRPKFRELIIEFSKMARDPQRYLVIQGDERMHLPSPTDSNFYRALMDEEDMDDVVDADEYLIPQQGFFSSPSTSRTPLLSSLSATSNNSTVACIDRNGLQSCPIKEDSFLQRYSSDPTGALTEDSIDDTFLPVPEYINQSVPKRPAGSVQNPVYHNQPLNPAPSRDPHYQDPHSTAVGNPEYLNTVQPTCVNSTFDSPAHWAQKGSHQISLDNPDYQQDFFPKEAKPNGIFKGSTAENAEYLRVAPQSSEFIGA

Row | Compound | IC50 (EGFR L858R) | IC50 (EGFR (d746-750)) | IC50 [1]
1 | C[C@H](CN1CCC1)Oc1cc(-c2cnn(C)c2)cc2ncnc(Nc3ccc4ncccc4c3F)c12 [Example 101, (R)-5-((1-(azetidin-1-yl)propan-2-yl)oxy)-N-(5-fluoroquinolin-6-yl)-7-(1-methyl-1H-pyrazol-4-yl)quinazolin-4-amine] | 10.1 to 50 nM | < 10 nM | ≤ 10 nM
2 | CCNC[C@@H](C)Oc1cc(-c2cnn(C)c2)cc2ncnc(Nc3ccc4ncccc4c3F)c12 [Example 102, (R)-5-((1-(ethylamino)propan-2-yl)oxy)-N-(5-fluoroquinolin-6-yl)-7-(1-methyl-1H-pyrazol-4-yl)quinazolin-4-amine] | 10.1 to 50 nM | 10.1 to 50 nM | > 50.1 nM
3 | C[C@H](CN(C)C)Oc1cc(-c2cnn(C)c2)cc2ncnc(Nc3ccc4nccnc4c3)c12 [Example 103, (R)-5-((1-(dimethylamino)propan-2-yl)oxy)-7-(1-methyl-1H-pyrazol-4-yl)-N-(quinoxalin-6-yl)quinazolin-4-amine] | 10.1 to 50 nM | < 10 nM | 10.1 to 50 nM
4 | C[C@H](CN(C)C)Oc1cc(-c2cnn(C)c2)cc2ncnc(Nc3ccc4ncc(F)cc4c3F)c12 [Example 104, (R)—N-(3,5-difluoroquinolin-6-yl)-5-((1-(dimethylamino)propan-2-yl)oxy)-7-(1-methyl-1H-pyrazol-4-yl)quinazolin-4-amine] | 10.1 to 50 nM | < 10 nM | 10.1 to 50 nM
5 | Cc1ccc2cc(Nc3ncnc4cc(-c5cnn(C)c5)cc(O[C@H](C)CN(C)C)c34)ccc2n1 [Example 105, (R)-5-((1-(dimethylamino)propan-2-yl)oxy)-7-(1-methyl-1H-pyrazol-4-yl)-N-(2-methylquinolin-6-yl)quinazolin-4-amine] | 10.1 to 50 nM | < 10 nM | 10.1 to 50 nM
6 | Cc1ccc2c(F)c(Nc3ncnc4cc(-c5cnn(C)c5)cc(O[C@H](C)CN(C)C)c34)ccc2n1 [Example 107, (R)-5-((1-(dimethylamino)propan-2-yl)oxy)-N-(5-fluoro-2-methylquinolin-6-yl)-7-(1-methyl-1H-pyrazol-4-yl)quinazolin-4-amine] | 10.1 to 50 nM | < 10 nM | 10.1 to 50 nM
7 | C[C@H](CN(C)C)Oc1cc(-c2cnn(C)c2)cc2ncnc(Nc3ccc4cccnc4c3F)c12 [Example 108, (R)-5-((1-(dimethylamino)propan-2-yl)oxy)-N-(8-fluoroquinolin-7-yl)-7-(1-methyl-1H-pyrazol-4-yl)quinazolin-4-amine] | 10.1 to 50 nM | < 10 nM | 10.1 to 50 nM
8 | C[C@H](CN(C)C)Oc1cc(-c2cnn(C)c2)cc2ncnc(Nc3ccc4nccnc4c3F)c12 [Example 109, (R)-5-((1-(dimethylamino)propan-2-yl)oxy)-N-(5-fluoroquinoxalin-6-yl)-7-(1-methyl-1H-pyrazol-4-yl)quinazolin-4-amine] | > 50.1 nM | 10.1 to 50 nM | > 50.1 nM
9 | CCn1cc(-c2cc(OC3CCN(C)CC3)c3c(Nc4ccc5ncccc5c4F)ncnc3c2)c(OC)n1 [Example 117, 7-(1-ethyl-3-methoxy-1H-pyrazol-4-yl)-N-(5-fluoroquinolin-6-yl)-5-((1-methylpiperidin-4-yl)oxy)quinazolin-4-amine] | 10.1 to 50 nM | < 10 nM | 10.1 to 50 nM
10 | C[C@H](CN(C)C)Oc1cc(-c2cnn(C)c2)cc2ncnc(Nc3ccc4nc(O)ccc4c3F)c12 [Example 130, (R)-6-((5-((1-(dimethylamino)propan-2-yl)oxy)-7-(1-methyl-1H-pyrazol-4-yl)quinazolin-4-yl)amino)-5-fluoroquinolin-2-ol] | > 50.1 nM | 10.1 to 50 nM | > 50.1 nM
11 | C[C@H](CN(C)C)Oc1cc(C2CC2)cc2ncnc(Nc3ccc4ncccc4c3F)c12 [Example 149, (R)-7-cyclopropyl-5-((1-(dimethylamino)propan-2-yl)oxy)-N-(5-fluoroquinolin-6-yl)quinazolin-4-amine] | > 50.1 nM | 10.1 to 50 nM | > 50.1 nM
12 | C[C@H](CN(C)C)Oc1cc(N2CC3CC(C2)N3)cc2ncnc(Nc3ccc4ncccc4c3F)c12 [Example 150, 7-(3,6-diazabicyclo[3.1.1]heptan-3-yl)-5-(((R)-1-(dimethylamino)propan-2-yl)oxy)-N-(5-fluoroquinolin-6-yl)quinazolin-4-amine] | > 50.1 nM | > 50.1 nM | > 50.1 nM
13 | CC(=O)N1C2CC1CN(c1cc(O[C@H](C)CN(C)C)c3c(Nc4ccc5ncccc5c4F)ncnc3c1)C2 [Example 151, 1-(3-(5-(((R)-1-(dimethylamino)propan-2-yl)oxy)-4-((5-fluoroquinolin-6-yl)amino)quinazolin-7-yl)-3,6-diazabicyclo[3.1.1]heptan-6-yl)ethan-1-one] | > 50.1 nM | 10.1 to 50 nM | > 50.1 nM
14 | C[C@H](CN(C)C)Oc1cc(N2CC3(CNC3)C2)cc2ncnc(Nc3ccc4ncccc4c3F)c12 [Example 152, (R)-5-((1-(dimethylamino)propan-2-yl)oxy)-N-(5-fluoroquinolin-6-yl)-7-(2,6-diazaspiro[3.3]heptan-2-yl)quinazolin-4-amine] | < 10 nM | < 10 nM | 10.1 to 50 nM

Next, values leading:

Row | IC50 (EGFR L858R) | IC50 (EGFR (d746-750)) | IC50 [1] | Compound
15 | < 10 nM | < 10 nM | ≤ 10 nM | C[C@H](CN(C)C)Oc1cc(-c2cnn(C)c2)cc2ncnc(Nc3c(F)cc4ncccc4c3F)c12 [Example 106, (R)—N-(5,7-difluoroquinolin-6-yl)-5-((1-(dimethylamino)propan-2-yl)oxy)-7-(1-methyl-1H-pyrazol-4-yl)quinazolin-4-amine]
16 | < 10 nM | < 10 nM | > 50.1 nM | C[C@H](CN(C)C)Oc1cc(-c2cnn(C)c2)cc2ncnc(Nc3cnc4ccccc4c3F)c12 [Example 110, (R)-5-((1-(dimethylamino)propan-2-yl)oxy)-N-(4-fluoroquinolin-3-yl)-7-(1-methyl-1H-pyrazol-4-yl)quinazolin-4-amine]
17 | < 10 nM | < 10 nM | ≤ 10 nM | C[C@@H](Oc1cc(-c2cnn(C)c2)cc2ncnc(Nc3ccc4ncccc4c3F)c12)C(CO)CO [Example 111, (R)-2-(1-((4-((5-fluoroquinolin-6-yl)amino)-7-(1-methyl-1H-pyrazol-4-yl)quinazolin-5-yl)oxy)ethyl)propane-1,3-diol]
18 | < 10 nM | < 10 nM | ≤ 10 nM | COCC(CO)[C@@H](C)Oc1cc(-c2cnn(C)c2)cc2ncnc(Nc3ccc4ncccc4c3F)c12 (stereo partly drawn) [Example 112, (3R)-3-((4-((5-fluoroquinolin-6-yl)amino)-7-(1-methyl-1H-pyrazol-4-yl)quinazolin-5-yl)oxy)-2-(methoxymethyl)butan-1-ol]
19 | < 10 nM | < 10 nM | ≤ 10 nM | C[C@@H](Oc1cc(-c2cnn(C)c2)cc2ncnc(Nc3ccc4ncccc4c3F)c12)C(CO)CCl (stereo partly drawn) [Example 113, (3R)-2-(chloromethyl)-3-((4-((5-fluoroquinolin-6-yl)amino)-7-(1-methyl-1H-pyrazol-4-yl)quinazolin-5-yl)oxy)butan-1-ol]
20 | < 10 nM | < 10 nM | ≤ 10 nM | C[C@H](CN(C)C1CC1)Oc1cc(-c2cnn(C)c2)cc2ncnc(Nc3ccc4ncccc4c3F)c12 [Example 114, (R)-5-((1-(cyclopropyl(methyl)amino)propan-2-yl)oxy)-N-(5-fluoroquinolin-6-yl)-7-(1-methyl-1H-pyrazol-4-yl)quinazolin-4-amine]
21 | < 10 nM | < 10 nM | ≤ 10 nM | C[C@H](CN(C)C1CCC1)Oc1cc(-c2cnn(C)c2)cc2ncnc(Nc3ccc4ncccc4c3F)c12 [Example 115, (R)-5-((1-(cyclobutyl(methyl)amino)propan-2-yl)oxy)-N-(5-fluoroquinolin-6-yl)-7-(1-methyl-1H-pyrazol-4-yl)quinazolin-4-amine]
22 | < 10 nM | < 10 nM | > 50.1 nM | C[C@H](CN(C)C)Oc1cc(-c2cnn(C)c2)cc2ncnc(Nc3ccc4ncc(O)cc4c3F)c12 [Example 116, (R)-6-((5-((1-(dimethylamino)propan-2-yl)oxy)-7-(1-methyl-1H-pyrazol-4-yl)quinazolin-4-yl)amino)-5-fluoroquinolin-3-ol]
23 | < 10 nM | < 10 nM | ≤ 10 nM | C[C@H](CN(C)C)Oc1cc(-c2cn(C)nc2OC(F)F)cc2ncnc(Nc3ccc4ncccc4c3F)c12 [Example 118, (R)-7-(3-(difluoromethoxy)-1-methyl-1H-pyrazol-4-yl)-5-((1-(dimethylamino)propan-2-yl)oxy)-N-(5-fluoroquinolin-6-yl)quinazolin-4-amine]
24 | < 10 nM | < 10 nM | ≤ 10 nM | C[C@H](CN(C)C)Oc1cc(-c2cnn(C)c2)cc2ncnc(Nc3cc(O)c4ncccc4c3F)c12 [Example 122, (R)-6-((5-((1-(dimethylamino)propan-2-yl)oxy)-7-(1-methyl-1H-pyrazol-4-yl)quinazolin-4-yl)amino)-5-fluoroquinolin-8-ol]
25 | < 10 nM | < 10 nM | ≤ 10 nM | C[C@H](CO)Oc1cc(-c2cnn(C)c2)cc2ncnc(Nc3ccc4ncccc4c3F)c12 [Example 135, (R)-2-((4-((5-fluoroquinolin-6-yl)amino)-7-(1-methyl-1H-pyrazol-4-yl)quinazolin-5-yl)oxy)propan-1-ol]
26 | < 10 nM | < 10 nM | ≤ 10 nM | CC(Oc1cc(-c2cnn(C)c2)cc2ncnc(Nc3ccc4ncccc4c3F)c12)C1(N(C)C)COC1 (stereo not drawn) [Example 142, 5-(1-(3-(dimethylamino)oxetan-3-yl)ethoxy)-N-(5-fluoroquinolin-6-yl)-7-(1-methyl-1H-pyrazol-4-yl)quinazolin-4-amine]
